The values that follow come from patent US20260217698A1 (BEYANG THERAPEUTICS CO., LTD., priority 2022, published 2026).

A value given as a limit tells only on which side of the number the result lay.

One test has as its target VEGFR2 (Homo sapiens, UniProt P35968). The test can be described thus: Kinase inhibition, Mobility Shift Assay/IMAP, VEGFR2. The format is biochemical. Set-up: purchased Carna 08-191. An excerpt: (§1) This assay directly monitored the ability of compounds to inhibit kinase phosphorylation by measuring non-phosphorylated and phosphorylated substrates in kinase reactions by using Mobility Shift Assays/IMAP™ analysis.
(§2) Read the conversion ratio data on CaliperEZ Reader II. Convert conversion rates into inhibition ratio data.
(§3) “Min” indicates the readout of the control well without the addition of enzymes; and “Max” indicates the readout of the control well with the addition of DMSO Fit IC50 values with XL Fit excel add-in version […].
(§4) X indicates the log value of compound concentration, and Y indicates the inhibition ratio (% inhibition).

The next test has as its target T1, EGFR (Homo sapiens, UniProt P00533).
T1 construct: purchased Carna 08-115
Nature of the test: Kinase inhibition, Mobility Shift Assay/IMAP, EGFR. The format is biochemical.
From the text: as §1, §2, §3, §4

Sequence of VEGFR2 (P35968 790-1356 limits assumed): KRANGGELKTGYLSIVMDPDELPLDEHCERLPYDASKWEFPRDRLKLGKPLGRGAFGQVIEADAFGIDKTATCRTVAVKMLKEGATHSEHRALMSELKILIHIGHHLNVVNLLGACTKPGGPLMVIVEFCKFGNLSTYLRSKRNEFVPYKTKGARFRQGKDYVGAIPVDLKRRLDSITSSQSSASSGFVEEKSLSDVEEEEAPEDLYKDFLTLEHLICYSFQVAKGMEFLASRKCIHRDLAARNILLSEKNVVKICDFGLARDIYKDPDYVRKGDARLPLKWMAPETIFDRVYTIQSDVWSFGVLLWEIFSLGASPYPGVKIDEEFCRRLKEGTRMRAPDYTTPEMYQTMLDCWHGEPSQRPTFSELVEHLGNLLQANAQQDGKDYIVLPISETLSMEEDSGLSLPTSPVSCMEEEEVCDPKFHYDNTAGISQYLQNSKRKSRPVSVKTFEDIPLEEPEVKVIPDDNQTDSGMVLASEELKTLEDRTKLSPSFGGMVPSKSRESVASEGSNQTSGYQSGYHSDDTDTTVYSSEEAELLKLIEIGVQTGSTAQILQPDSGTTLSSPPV
T1 sequence (P00533 669-1210 limits assumed): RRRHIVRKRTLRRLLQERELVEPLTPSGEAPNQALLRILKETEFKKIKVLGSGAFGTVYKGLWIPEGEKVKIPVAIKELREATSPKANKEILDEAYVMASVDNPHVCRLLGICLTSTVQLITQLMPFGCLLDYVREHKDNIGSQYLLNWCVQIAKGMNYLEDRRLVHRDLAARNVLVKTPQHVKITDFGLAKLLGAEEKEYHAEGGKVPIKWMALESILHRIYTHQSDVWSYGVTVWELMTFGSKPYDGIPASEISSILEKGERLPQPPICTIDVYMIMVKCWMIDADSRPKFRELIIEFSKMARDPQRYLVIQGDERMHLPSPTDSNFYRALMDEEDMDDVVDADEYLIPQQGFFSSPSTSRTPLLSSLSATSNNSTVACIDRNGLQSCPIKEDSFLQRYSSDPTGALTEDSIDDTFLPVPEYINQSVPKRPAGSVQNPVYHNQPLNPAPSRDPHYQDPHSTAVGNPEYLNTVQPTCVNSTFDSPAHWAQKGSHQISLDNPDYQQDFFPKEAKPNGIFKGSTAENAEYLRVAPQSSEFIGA

In the case of `Cn1nc(COc2nsc(NC(=O)NCCCCN3CCCC3)c2C(N)=O)c2ccccc21` [Compound T002, 3-((1-methyl-1H-indazol-3-yl)methoxy)-5-(3-(4-(pyrrolidin-1-yl)butyl)ureido)isothiazole-4-carboxamide], the IC50 at VEGFR2 came to 130 nM. On to `NC(=O)c1c(OCc2cccc(OC3CC3)c2)nsc1NC(=O)NCCCCN1CCCC1` [Compound T003, 3-((3-cyclopropoxybenzyl)oxy)-5-(3-(4-(pyrrolidin-1-yl)butyl)ureido)isothiazole-4-carboxamide], for which the IC50 on VEGFR2 was 112 nM. `Cn1ncc2c(COc3nsc(NC(=O)NCCCCN4CCCC4)c3C(N)=O)cccc21` [Compound T004, 3-((1-methyl-1H-indazol-4-yl)methoxy)-5-(3-(4-(pyrrolidin-1-yl)butyl)ureido)isothiazole-4-carboxamide]: the IC50 on VEGFR2 was 163 nM. As to `Cc1cc(COc2nsc(NC(=O)NCCCCN3CCCC3)c2C(N)=O)nn1C` [Compound T009, 3-((1,5-dimethyl-1H-pyrazol-3-yl)methoxy)-5-(3-(4-(pyrrolidin-1-yl)butyl)ureido)isothiazole-4-carboxamide], the IC50 at VEGFR2 came out at 217 nM.

In the case of `COc1cccc(COc2nsc(NC(=O)NCCCCN3CCCC3)c2C(N)=O)c1OC` [Compound T032, 3-((2,3-dimethoxybenzyl)oxy)-5-(3-(4-(pyrrolidin-1-yl)butyl)ureido)isothiazole-4-carboxamide], the IC50 is 39600 nM at EGFR and 56.8 nM at VEGFR2.

Take `CC(C)(C)OC(=O)N1CCN(CCn2cc(Nc3snc(OCc4c(F)cc(Br)cc4F)c3C(N)=O)cn2)CC1` [Compound T046]: the IC50 at VEGFR2 was determined as 62 nM. With `CC(C)NC(=O)c1cccc(COc2nsc(NC(=O)NCCCCN3CCCC3)c2C(N)=O)c1` [Compound T057, 3-((3-(isopropylcarbamoyl)benzyl)oxy)-5-(3-(4-(pyrrolidin-1-yl)butyl)ureido)isothiazole-4-carboxamide], the IC50 is more than 60000 nM at EGFR and 152 nM on VEGFR2. With `COc1cc(F)c(F)c(COc2nsc(NC(=O)NCCCCN3CCCC3)c2C(N)=O)c1F` [Compound T142, 5-(4-pyrrolidin-1-ylbutylcarbamoylamino)-3-[(2,3,6-trifluoro-5-methoxy-phenyl)methoxy]isothiazole-4-carboxamide], the IC50 amounted to 31000 nM on EGFR and 6.6 nM on VEGFR2. For the compound `NC(=O)c1c(OCc2c(F)ccc(OC(F)F)c2F)nsc1NC(=O)NCCCCN1CCCC1` [Compound T148, 3-[[3-(difluoromethoxy)-2,6-difluoro-phenyl]methoxy]-5-(4-pyrrolidin-1-ylbutylcarbamoylamino)isothiazole-4-carboxamide], the IC50 amounted to 4010 nM at EGFR and 16 nM on VEGFR2.

In the case of `NC(=O)c1c(OCc2ccc(F)c(C(=O)NC3CC3)c2)nsc1NC(=O)NCCCCN1CC[C@@H](O)C1` [Compound T150, 3-[[3-(cyclopropylcarbamoyl)-4-fluoro-phenyl]methoxy]-5-[4-[(3R)-3-hydroxypyrrolidin-1-yl]butylcarbamoylamino]isothiazole-4-carboxamide], the figures for the IC50 on EGFR and on VEGFR2 were 7420 nM and 1.2 nM, respectively. For the compound `NC(=O)c1c(OCc2cc(C(=O)NC3CC3)ccc2F)nsc1NC(=O)NCCCN1CCNCC1` [Compound T153, 3-[[5-(cyclopropylcarbamyl)-2-fluoro-phenyl]methoxy]-5-(3-piperazin-1-ylpropylcarbamylamino)isothiazol-4-formamide], the IC50 on VEGFR2 worked out at 0.66 nM.

In the case of `CC(=O)N1CCN(CCCNC(=O)Nc2snc(OCc3cc(C(=O)NC4CC4)ccc3F)c2C(N)=O)CC1` [Compound T156, 5-[3-(4-acetylpiperazin-1-yl)propylcarbamoylamino]-3-[[5-(cyclopropylcarbamoyl)-2-fluoro-phenyl]methoxy]isothiazole-4-carboxamide], the IC50 at VEGFR2 was 1.44 nM. In the case of `CC(=O)N1CCN(CCCNC(=O)Nc2snc(OCc3ccc(F)c(C(=O)NC4CC4)c3)c2C(N)=O)CC1` [Compound T157, 5-[3-(4-acetylpiperazin-1-yl)propylcarbamoylamino]-3-[[3-(cyclopropylcarbamoyl)-4-fluoro-phenyl]methoxy]isothiazole-4-carboxamide], the IC50 worked out at 15200 nM at EGFR and 2.5 nM at VEGFR2. As for `NC(=O)c1c(OCc2cc(C(=O)NC3CC3)ccc2F)nsc1N` [Compound T159, 5-amino-3-[[5-(cyclopropylcarbamoyl)-2-fluoro-phenyl]methoxy]isothiazole-4-carboxamide], the values for the IC50 on EGFR and at VEGFR2 were 8770 nM and 41.7 nM, respectively.

Consider `CCN1CCN(CCCNC(=O)Nc2snc(OCc3cc(C(=O)NC4CC4)ccc3F)c2C(N)=O)CC1` [Compound T163, 3-[[5-(cyclopropylcarbamoyl)-2-fluoro-phenyl]methoxy]-5-[3-(4-ethylpiperazin-1-yl)propylcarbamoylamino]isothiazole-4-carboxamide], for which the IC50 was determined as 11200 nM at EGFR and 0.32 nM on VEGFR2.

As for `CCN1CCN(CCCNC(=O)Nc2snc(OCc3ccc(F)c(C(=O)NC4CC4)c3)c2C(N)=O)CC1` [Compound T164, 3-[[3-(cyclopropylcarbamoyl)-4-fluoro-phenyl]methoxy]-5-[3-(4-ethylpiperazin-1-yl)propylcarbamoylamino]isothiazole-4-carboxamide], the IC50 on EGFR amounted to 12200 nM; at VEGFR2 it was 1.25 nM.

Turning to `NC(=O)c1c(OCc2ccc(F)c(C(=O)NC3CC3)c2)nsc1NC(=O)NCCCN1CCN(C2CC2)CC1` [Compound T165, 3-[[3-(cyclopropylcarbamoyl)-4-fluoro-phenyl]methoxy]-5-[3-(4-cyclopropylpiperazin-1-yl)propylcarbamoylamino]isothiazole-4-carboxamide], the IC50 on EGFR came to 31600 nM; on VEGFR2, 1.46 nM. For the compound `NCCCNC(=O)Nc1snc(OCc2cc(C(=O)NC3CC3)ccc2F)c1C(N)=O` [Compound T167, 5-(3-aminopropylcarbamoylamino)-3-[[5-(cyclopropylcarbamoyl)-2-fluoro-phenyl]methoxy]isothiazole-4-carboxamide], the IC50 on VEGFR2 worked out at 0.95 nM. Turning to `NC(=O)c1ccc(F)c(COc2nsc(NC(=O)NCCCN3CC[C@H](F)C3)c2C(N)=O)c1` [Compound T168, 3-[(5-carbamoyl-2-fluoro-phenyl)methoxy]-5-[3-[(3S)-3-fluoropyrrolidin-1-yl]propylcarbamoylamino]isothiazole-4-carboxamide], the IC50 on VEGFR2 stood at 8.45 nM. As for `NC(=O)c1c(OCc2cc(C(=O)NC3CC3)ccc2F)nsc1NC(=O)NCCCO` [Compound T170, 3-[[5-(cyclopropylcarbamoyl)-2-fluoro-phenyl]methoxy]-5-(3-hydroxypropylcarbamoylamino)isothiazole-4-carboxamide], the IC50 on VEGFR2 was determined as 1.12 nM. For `CC(C)(C)OC(=O)CCNC(=O)Nc1snc(OCc2cc(C(=O)NC3CC3)ccc2F)c1C(N)=O` [Compound T173, Tert-butyl 3-[[4-carbamoyl-3-[[5-(cyclopropylcarbamoyl)-2-fluoro-phenyl]methoxy]isothiazol-5-yl]carbamoylamino]propanoate], the IC50 on EGFR was 5910 nM; on VEGFR2, 1.97 nM.
